Experimental data from patent publication US20120046354A1, “ANTI-OXIDANT LOZENGES FOR THE PREVENTION AND TREATMENT OF RADIATION INDUCED MUCOSITIS, PRECANCEROUS LESIONS, ORAL CANCER AND OTHER ORAL CAVITY MUCOSAL DISORDERS” (priority 2010, published 2012).

How the values were obtained:
[1] = system: wound healing; conditions: following burn injury and surgeries, laboratory animals; cited from earlier work
[2] = system: mucositis; conditions: mouthwash; cited from earlier work
[3] = system: leukoplakia; set-up: clinical response rate / response rate among patients with biopsy-proved dysplasia: dose or concentration left out as unconfirmed; conditions: cited from earlier work
[4] = system: radiation proctopathy; assay: randomized double-blinded trial versus placebo in patients with radiation proctopathy; format: in vivo, human; conditions: 10,000 IU by mouth for 90 days
Excerpt: (§1) The inventor has described a dramatic case of the patient with AIDS and anal carcinoma who developed a large radiation-induced anal ulceration with marked debility. The patient required high dose opioid therapy for control of anal pain. […] The inventor has also designed, conducted and published a randomized double-blinded trial comparing vitamin A in the form of retinyl palmitate (10,000 IU by mouth for 90 days) to placebo in patients with radiation proctopathy.

[5] = system: radiation-induced anal ulceration; assay: case of a patient with AIDS and anal carcinoma with radiation-induced anal ulceration, orally administered vitamin A; format: in vivo, human; conditions: single patient
Excerpt: as §1

[6] = system: mucositis after chemotherapy; conditions: 1 mL topical oil (400 mg) twice daily, 18 patients; cited from earlier work
[7] = system: oral leukoplakia; conditions: topically applied; cited from earlier work
[8] = system: severe mucositis; conditions: 250 mg daily for 21 days then 75 mg daily; control group 38 patient-weeks, P=0.025; cited from earlier work
[9] = three months of therapy, placebo 10 percent

Vitamin A
wound healing [1]: accelerate wound healing

[H]/N=C(\N/C(=N/[H])NCCCCCCNC(=N)NC(=N)Nc1ccc(Cl)cc1)Nc1ccc(Cl)cc1 [chlorhexidine]
effectiveness for mucositis [2]: limited or possibly no effectiveness

CC1=C(/C=C/C(C)=C/C=C/C(C)=C\C(=O)O)C(C)(C)CCC1 [isotretinoin, 13-cis-retinoic acid]
patients who required decreases in their dosage ([3]; higher dose, 2 mg/kg per day): 47% | patients who developed conjunctivitis ([3]; lower dose, 1 mg/kg per day): 29% | xeroderma ([3]; lower dose, 1 mg/kg per day): common | clinical response rate [3, 9]: 67% | response rate among patients with biopsy-proved dysplasia [3, 9]: 54% | patients with relapse of disease ([3]; within three months of discontinuation of treatment): about half

CCCCCCCCCCCCCCCC(=O)OC/C=C(C)/C=C/C=C(C)/C=C/C1=C(C)CCCC1(C)C [retinyl palmitate]
rectal symptoms of radiation proctopathy [4]: significantly reduced | persistence of wound healing and symptomatic relief ([5]; after twelve week oral course): more than six | wound healing and symptomatic relief ([5]; twelve week course, orally administered): complete wound healing and symptomatic relief

vitamin E
benefit on mucosal lesions compared to soybean oil [6]: benefit

O=C(c1ccccc1)c1ccc2n1CCC2C(=O)O (centres unmarked) [ketolorac]
treatment of oral leukoplakia [7]: did not appear to effectively treat

CC1=C(/C=C/C(C)=C/C=C/C(C)=C/C=C/C=C(C)/C=C/C=C(C)/C=C/C2=C(C)CCCC2(C)C)C(C)(C)CCC1 [beta-carotene]
severe mucositis [8]: 22 patient-weeks
